The kinase profiling compilation of Christmann-Franck et al. (2016)

Experiments:
Assay in all cases: radiometric filter-binding kinase assay, Kinase HotSpot
Conditions in all cases: compound 0.5 µM; ATP 10 µM
[1] = target: PDGFRB (human) (UniProt P09619)
[2] = target: ACVR1 (human) (UniProt Q04771)
[3] = target: MAP3K7 TAB1 (human) (UniProt O43318+Q15750)
[4] = target: TSSK1B (human) (UniProt Q9BXA7)
[5] = target: PRKCG (human) (UniProt P05129)
[6] = target: RPS6KA2 KD1 KD2 (human) (UniProt Q15349)
[7] = target: PLK3 (human) (UniProt Q9H4B4)
[8] = target: GRK4 (human) (UniProt P32298)
[9] = target: MAP3K10 (human) (UniProt Q02779)
[10] = target: MST1R (human) (UniProt Q04912)
[11] = target: MAPKAPK3 (human) (UniProt Q16644)
[12] = target: TEK (human) (UniProt Q02763)
[13] = target: CDK1 CCNB1 (human) (UniProt P06493+P14635)
[14] = target: TSSK2 (human) (UniProt Q96PF2)
[15] = target: PAK3 (human) (UniProt O75914)
Sequence of PAK3 (human) (O75914 whole entry, looked up): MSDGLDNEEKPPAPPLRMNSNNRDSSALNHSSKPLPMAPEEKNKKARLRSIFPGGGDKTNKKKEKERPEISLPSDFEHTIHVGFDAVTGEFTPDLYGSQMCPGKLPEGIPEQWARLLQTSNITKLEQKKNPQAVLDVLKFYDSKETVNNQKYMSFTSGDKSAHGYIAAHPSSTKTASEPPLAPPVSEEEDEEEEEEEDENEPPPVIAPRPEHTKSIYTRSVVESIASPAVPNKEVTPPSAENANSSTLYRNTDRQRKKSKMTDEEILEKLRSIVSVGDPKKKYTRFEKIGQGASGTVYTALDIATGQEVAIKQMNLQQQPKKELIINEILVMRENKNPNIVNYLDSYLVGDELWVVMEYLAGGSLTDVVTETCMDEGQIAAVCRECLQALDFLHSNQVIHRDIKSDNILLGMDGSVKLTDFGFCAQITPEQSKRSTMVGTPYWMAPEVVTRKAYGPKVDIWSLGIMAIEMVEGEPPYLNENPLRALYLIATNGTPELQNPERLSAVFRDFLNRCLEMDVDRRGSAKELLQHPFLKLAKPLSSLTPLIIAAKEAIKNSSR

[16] = target: BLK (human) (UniProt P51451)
Sequence of BLK (human) (P51451 whole entry, looked up): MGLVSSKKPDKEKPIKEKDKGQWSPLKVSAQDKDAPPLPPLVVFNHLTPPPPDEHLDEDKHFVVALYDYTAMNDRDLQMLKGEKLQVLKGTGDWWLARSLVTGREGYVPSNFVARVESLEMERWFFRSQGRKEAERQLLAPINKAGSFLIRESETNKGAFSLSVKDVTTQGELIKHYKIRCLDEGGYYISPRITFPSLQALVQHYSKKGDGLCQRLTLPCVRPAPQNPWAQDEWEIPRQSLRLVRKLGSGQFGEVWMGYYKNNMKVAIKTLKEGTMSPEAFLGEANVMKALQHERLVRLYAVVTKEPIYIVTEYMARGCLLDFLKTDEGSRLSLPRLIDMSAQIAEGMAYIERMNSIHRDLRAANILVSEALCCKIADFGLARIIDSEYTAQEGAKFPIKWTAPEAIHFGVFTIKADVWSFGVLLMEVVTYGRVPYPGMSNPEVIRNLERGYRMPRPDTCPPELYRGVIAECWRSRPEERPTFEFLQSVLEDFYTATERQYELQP

[17] = target: CAMK1D (human) (UniProt Q8IU85)
[18] = target: PAK2 (human) (UniProt Q13177)
[19] = target: TYK2 JH1 catalytic (human) (UniProt P29597)
Sequence of TYK2 JH1 catalytic (human) (P29597 whole entry, looked up): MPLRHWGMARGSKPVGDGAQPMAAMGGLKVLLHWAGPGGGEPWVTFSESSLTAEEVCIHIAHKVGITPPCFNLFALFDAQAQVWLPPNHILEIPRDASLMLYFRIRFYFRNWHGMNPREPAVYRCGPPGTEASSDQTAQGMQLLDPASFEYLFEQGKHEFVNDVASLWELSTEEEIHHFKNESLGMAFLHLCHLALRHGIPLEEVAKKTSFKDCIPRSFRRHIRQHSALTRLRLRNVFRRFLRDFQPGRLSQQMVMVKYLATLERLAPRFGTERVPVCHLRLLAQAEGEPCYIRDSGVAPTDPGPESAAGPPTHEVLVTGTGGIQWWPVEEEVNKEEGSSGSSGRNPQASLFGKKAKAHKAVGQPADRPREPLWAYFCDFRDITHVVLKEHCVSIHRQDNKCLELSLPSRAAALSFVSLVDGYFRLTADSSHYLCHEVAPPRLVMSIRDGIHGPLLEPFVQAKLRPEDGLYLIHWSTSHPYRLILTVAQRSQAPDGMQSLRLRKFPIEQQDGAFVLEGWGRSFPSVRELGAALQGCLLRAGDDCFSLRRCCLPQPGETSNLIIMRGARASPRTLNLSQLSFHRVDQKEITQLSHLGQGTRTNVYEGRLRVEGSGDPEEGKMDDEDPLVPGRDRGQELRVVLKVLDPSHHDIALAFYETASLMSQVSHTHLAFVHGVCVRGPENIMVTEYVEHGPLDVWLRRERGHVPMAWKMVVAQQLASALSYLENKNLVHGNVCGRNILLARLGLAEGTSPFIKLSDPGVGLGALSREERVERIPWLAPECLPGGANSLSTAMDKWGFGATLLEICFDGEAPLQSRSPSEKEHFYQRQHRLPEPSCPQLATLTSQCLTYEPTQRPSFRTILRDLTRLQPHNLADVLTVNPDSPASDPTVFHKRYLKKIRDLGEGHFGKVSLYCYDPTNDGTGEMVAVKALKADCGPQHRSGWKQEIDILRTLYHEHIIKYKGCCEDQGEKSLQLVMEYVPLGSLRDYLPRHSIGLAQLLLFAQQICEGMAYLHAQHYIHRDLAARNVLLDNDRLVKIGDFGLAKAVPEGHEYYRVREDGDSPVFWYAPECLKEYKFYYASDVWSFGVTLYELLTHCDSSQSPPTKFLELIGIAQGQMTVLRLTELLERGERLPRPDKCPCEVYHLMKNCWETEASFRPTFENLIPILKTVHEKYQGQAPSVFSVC

[20] = target: MAPK14 (human) (UniProt Q16539)
Sequence of MAPK14 (human) (Q16539 whole entry, looked up): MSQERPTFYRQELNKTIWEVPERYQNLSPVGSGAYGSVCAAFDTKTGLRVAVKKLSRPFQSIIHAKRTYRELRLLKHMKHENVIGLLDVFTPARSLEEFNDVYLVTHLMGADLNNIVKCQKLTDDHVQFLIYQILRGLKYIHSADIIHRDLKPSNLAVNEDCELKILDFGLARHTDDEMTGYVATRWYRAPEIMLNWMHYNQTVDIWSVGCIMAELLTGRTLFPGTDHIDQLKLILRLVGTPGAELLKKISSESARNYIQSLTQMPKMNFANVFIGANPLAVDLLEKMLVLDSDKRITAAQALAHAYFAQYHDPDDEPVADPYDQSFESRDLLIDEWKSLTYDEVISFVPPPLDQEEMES

[21] = target: MUSK (human) (UniProt O15146)
[22] = target: HIPK4 (human) (UniProt Q8NE63)
[23] = target: RPS6KA6 KD1 KD2 (human) (UniProt Q9UK32)
[24] = target: TNK2 (human) (UniProt Q07912)
[25] = target: FGFR4 (human) (UniProt P22455)
Sequence of FGFR4 (human) (P22455 whole entry, looked up): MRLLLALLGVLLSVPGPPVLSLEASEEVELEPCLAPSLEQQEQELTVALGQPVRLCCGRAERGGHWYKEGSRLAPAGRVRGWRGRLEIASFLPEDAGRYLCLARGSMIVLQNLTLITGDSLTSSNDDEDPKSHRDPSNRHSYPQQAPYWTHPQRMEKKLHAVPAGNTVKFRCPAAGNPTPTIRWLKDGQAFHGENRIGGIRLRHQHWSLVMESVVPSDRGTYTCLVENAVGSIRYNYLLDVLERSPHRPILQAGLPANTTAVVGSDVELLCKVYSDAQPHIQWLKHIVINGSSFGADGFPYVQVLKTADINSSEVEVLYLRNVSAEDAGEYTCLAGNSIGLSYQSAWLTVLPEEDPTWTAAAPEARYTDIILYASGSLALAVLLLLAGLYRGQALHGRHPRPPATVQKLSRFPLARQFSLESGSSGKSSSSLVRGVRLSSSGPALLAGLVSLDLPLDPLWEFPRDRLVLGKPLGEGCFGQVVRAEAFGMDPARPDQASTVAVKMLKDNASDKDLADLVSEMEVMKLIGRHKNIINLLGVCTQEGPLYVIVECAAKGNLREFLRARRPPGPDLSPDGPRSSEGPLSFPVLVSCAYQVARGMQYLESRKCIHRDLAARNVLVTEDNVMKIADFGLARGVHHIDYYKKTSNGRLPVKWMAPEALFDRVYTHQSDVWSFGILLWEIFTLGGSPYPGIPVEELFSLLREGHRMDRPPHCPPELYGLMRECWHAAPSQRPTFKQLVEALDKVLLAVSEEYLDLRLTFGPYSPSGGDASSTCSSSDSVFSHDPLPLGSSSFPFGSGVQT

[26] = target: MYLK (human) (UniProt Q15746)
[27] = target: CDK6 CCND3 (human) (UniProt P30281+Q00534)
[28] = target: TAOK3 (human) (UniProt Q9H2K8)
[29] = target: VRK1 (human) (UniProt Q99986)
[30] = target: IGF1R (human) (UniProt P08069)
[31] = target: HIPK1 (human) (UniProt Q86Z02)
[32] = target: NTRK1 (human) (UniProt P04629)
[33] = target: CHUK (human) (UniProt O15111)
Sequence of CHUK (human) (O15111 whole entry, looked up): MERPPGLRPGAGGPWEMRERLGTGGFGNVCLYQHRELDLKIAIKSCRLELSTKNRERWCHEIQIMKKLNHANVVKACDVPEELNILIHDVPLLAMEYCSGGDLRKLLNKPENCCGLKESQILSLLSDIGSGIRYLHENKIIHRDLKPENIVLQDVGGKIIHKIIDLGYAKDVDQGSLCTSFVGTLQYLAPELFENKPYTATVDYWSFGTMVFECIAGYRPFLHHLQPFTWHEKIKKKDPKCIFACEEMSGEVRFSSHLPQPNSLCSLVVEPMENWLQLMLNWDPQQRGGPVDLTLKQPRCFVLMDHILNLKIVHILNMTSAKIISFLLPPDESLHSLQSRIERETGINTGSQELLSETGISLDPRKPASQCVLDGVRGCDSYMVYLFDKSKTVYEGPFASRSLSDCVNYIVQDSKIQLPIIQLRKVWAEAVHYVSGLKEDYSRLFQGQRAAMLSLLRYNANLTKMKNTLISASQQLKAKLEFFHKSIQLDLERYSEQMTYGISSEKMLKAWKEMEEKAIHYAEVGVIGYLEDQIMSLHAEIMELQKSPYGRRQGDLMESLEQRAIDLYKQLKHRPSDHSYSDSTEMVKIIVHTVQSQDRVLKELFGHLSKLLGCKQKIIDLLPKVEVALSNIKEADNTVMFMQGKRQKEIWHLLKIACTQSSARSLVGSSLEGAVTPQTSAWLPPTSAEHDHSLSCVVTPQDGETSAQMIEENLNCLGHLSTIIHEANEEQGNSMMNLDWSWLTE

[34] = target: RET (human) (UniProt P07949)
[35] = target: ERBB4 (human) (UniProt Q15303)
[36] = target: KIT (human) (UniProt P10721)
[37] = target: MAP2K2 (human) (UniProt P36507)
[38] = target: MYLK2 (human) (UniProt Q9H1R3)
[39] = target: NEK1 (human) (UniProt Q96PY6)
[40] = target: JAK3 JH1 JH2 (human) (UniProt P52333)
[41] = target: FLT3 (human) (UniProt P36888)

Sequence of ACVR1 (human) (Q04771 whole entry, looked up): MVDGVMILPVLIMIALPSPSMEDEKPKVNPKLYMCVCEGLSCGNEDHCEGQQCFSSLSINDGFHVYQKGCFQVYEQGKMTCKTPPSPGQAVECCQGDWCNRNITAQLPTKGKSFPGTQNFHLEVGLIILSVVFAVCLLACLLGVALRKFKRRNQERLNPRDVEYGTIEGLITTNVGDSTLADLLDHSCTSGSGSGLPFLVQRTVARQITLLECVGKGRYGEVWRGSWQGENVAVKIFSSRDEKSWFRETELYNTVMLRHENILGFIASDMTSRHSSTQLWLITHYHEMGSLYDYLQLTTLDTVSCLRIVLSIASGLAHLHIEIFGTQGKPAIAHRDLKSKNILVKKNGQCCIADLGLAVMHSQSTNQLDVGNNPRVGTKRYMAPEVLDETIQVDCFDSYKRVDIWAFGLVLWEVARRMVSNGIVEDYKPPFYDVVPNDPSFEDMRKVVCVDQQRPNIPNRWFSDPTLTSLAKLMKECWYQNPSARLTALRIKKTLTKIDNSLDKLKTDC
Sequence of TSSK1B (human) (Q9BXA7 whole entry, looked up): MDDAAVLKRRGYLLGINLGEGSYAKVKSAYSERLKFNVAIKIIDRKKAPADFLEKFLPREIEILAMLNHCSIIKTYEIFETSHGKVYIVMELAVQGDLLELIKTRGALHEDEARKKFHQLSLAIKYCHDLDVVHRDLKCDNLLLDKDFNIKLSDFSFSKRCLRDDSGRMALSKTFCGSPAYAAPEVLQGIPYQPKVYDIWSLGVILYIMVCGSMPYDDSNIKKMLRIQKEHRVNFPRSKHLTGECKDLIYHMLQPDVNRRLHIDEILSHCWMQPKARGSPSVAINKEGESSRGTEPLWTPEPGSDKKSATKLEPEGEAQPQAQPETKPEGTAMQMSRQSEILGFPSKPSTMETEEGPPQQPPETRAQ

Question: How did the residual activity [1] turn out when `CS(=O)(=O)CCNCc1ccc(-c2ccc3ncnc(Nc4ccc(OCc5cccc(F)c5)c(Cl)c4)c3c2)o1` was run?
Answer: 92%

Question: What about the residual activity [2] of the same molecule?
Answer: 106%

Question: And the residual activity [3]?
Answer: 89%

Question: And the residual activity [4]?
Answer: 79%

Question: What about the residual activity [5] of the same molecule?
Answer: 79.3%

Question: What about the residual activity [6] of the same molecule?
Answer: 84%

Question: What about the residual activity [7] of the same molecule?
Answer: 105%

Question: What about the residual activity [8] of the same molecule?
Answer: 90.3%

Question: What about the residual activity [9] of the same molecule?
Answer: 108%

Question: And the residual activity [10]?
Answer: 92.2%

Question: And the residual activity [11]?
Answer: 103%

Question: What about the residual activity [12] of the same molecule?
Answer: 93.2%

Question: What about the residual activity [13] of the same molecule?
Answer: 100%

Question: And the residual activity [14]?
Answer: 89.9%

Question: And the residual activity [15]?
Answer: 105%

Question: And the residual activity [16]?
Answer: 95.9%

Question: What about the residual activity [17] of the same molecule?
Answer: 104%

Question: What about the residual activity [18] of the same molecule?
Answer: 102%

Question: And the residual activity [19]?
Answer: 95.5%

Question: What about the residual activity [20] of the same molecule?
Answer: 101%

Question: What about the residual activity [21] of the same molecule?
Answer: 96.5%

Question: And the residual activity [22]?
Answer: 108%

Question: What about the residual activity [23] of the same molecule?
Answer: 108%

Question: And the residual activity [24]?
Answer: 97.5%

Question: What about the residual activity [25] of the same molecule?
Answer: 96.6%

Question: What about the residual activity [26] of the same molecule?
Answer: 90.7%

Question: And the residual activity [27]?
Answer: 120%

Question: And the residual activity [28]?
Answer: 101%

Question: What about the residual activity [29] of the same molecule?
Answer: 101%

Question: And the residual activity [30]?
Answer: 87.4%

Question: And the residual activity [31]?
Answer: 97.1%

Question: And the residual activity [32]?
Answer: 99.2%

Question: And the residual activity [33]?
Answer: 99.5%

Question: And the residual activity [34]?
Answer: 99.8%

Question: And the residual activity [35]?
Answer: 11.2%

Question: What about the residual activity [36] of the same molecule?
Answer: 98.4%

Question: And the residual activity [37]?
Answer: 106%

Question: And the residual activity [38]?
Answer: 108%

Question: What about the residual activity [39] of the same molecule?
Answer: 71.8%

Question: And the residual activity [40]?
Answer: 96.2%

Question: What about the residual activity [41] of the same molecule?
Answer: 92.6%

Question: Which residual activity [1] does the source give for `O=C(c1cc2cc(O)ccc2[nH]1)c1cc2cc(O)ccc2[nH]1` here?
Answer: 41.7%

Question: What about the residual activity [2] of the same molecule?
Answer: 123%

Question: What about the residual activity [3] of the same molecule?
Answer: 79.5%

Question: What about the residual activity [4] of the same molecule?
Answer: 96.4%

Question: What about the residual activity [5] of the same molecule?
Answer: 85.1%

Question: What about the residual activity [6] of the same molecule?
Answer: 22.2%

Question: What about the residual activity [7] of the same molecule?
Answer: 101%

Question: What about the residual activity [8] of the same molecule?
Answer: 103%

Question: What about the residual activity [9] of the same molecule?
Answer: 91.7%

Question: What about the residual activity [10] of the same molecule?
Answer: 90.4%

Question: And the residual activity [11]?
Answer: 91.2%

Question: What about the residual activity [12] of the same molecule?
Answer: 104%

Question: And the residual activity [13]?
Answer: 60.5%

Question: And the residual activity [14]?
Answer: 93.6%

Question: What about the residual activity [15] of the same molecule?
Answer: 99.2%

Question: What about the residual activity [16] of the same molecule?
Answer: 49.7%

Question: And the residual activity [17]?
Answer: 91.5%

Question: And the residual activity [18]?
Answer: 97%

Question: What about the residual activity [19] of the same molecule?
Answer: 66.7%

Question: And the residual activity [20]?
Answer: 103%

Question: What about the residual activity [21] of the same molecule?
Answer: 55.1%

Question: And the residual activity [22]?
Answer: 99.8%

Question: And the residual activity [23]?
Answer: 26.7%

Question: And the residual activity [24]?
Answer: 90.6%

Question: What about the residual activity [25] of the same molecule?
Answer: 92.8%

Question: What about the residual activity [26] of the same molecule?
Answer: 91.4%

Question: What about the residual activity [27] of the same molecule?
Answer: 50.3%

Question: What about the residual activity [28] of the same molecule?
Answer: 66.6%

Question: What about the residual activity [29] of the same molecule?
Answer: 85.3%

Question: And the residual activity [30]?
Answer: 103%

Question: What about the residual activity [31] of the same molecule?
Answer: 94.3%

Question: And the residual activity [32]?
Answer: 57.2%

Question: What about the residual activity [33] of the same molecule?
Answer: 103%

Question: What about the residual activity [34] of the same molecule?
Answer: 8.98%

Question: And the residual activity [35]?
Answer: 102%

Question: What about the residual activity [36] of the same molecule?
Answer: 45.6%

Question: What about the residual activity [37] of the same molecule?
Answer: 98.8%

Question: What about the residual activity [38] of the same molecule?
Answer: 21.1%

Question: And the residual activity [39]?
Answer: 93.4%

Question: What about the residual activity [40] of the same molecule?
Answer: 94.5%

Question: And the residual activity [41]?
Answer: 3.53%
